Marks after values point to notes of the source that are not given here.
System: chronic ITP model rats
Test: Platelet count in chronic ITP model rats (anti-rat platelet serum)
Format: in vivo, Wistar rats
Experimental: Establishment of chronic ITP model: Wistar rats were selected to establish the model by injecting rabbit anti-rat platelet serum (APS). […] 50 Rats in which the model was successfully established were selected, weighed, and randomly divided into 5 groups, i.e. the model control group, the icariin group (positive control group), and the icaritin administration groups (high-, medium- and low-dose groups), with 10 rats in each group. The groups were administered with the following therapeutic agents, respectively.
The model control group: administered by subcutaneous injection with the same volume of normal saline;
The icariin group: administered by subcutaneous injection with 2 mg/kg of icariin;
The high-dose icaritin group: administered by subcutaneous injection with 10 mg/kg of the icaritin injection of Example 11;
The medium-dose icaritin group: administered by subcutaneous injection with 5 mg/kg of the icaritin injection of Example 11;
The low-dose icaritin group: administered by subcutaneous injection with 1 mg/kg of the icaritin injection of Example 11.
At 1 h after the last administration, blood was sampled from the venous plexus by inserting a disposable 20 μl blood collection tube into the inner canthus of the […].

With `COc1ccc(-c2oc3c(CC=C(C)C)c(O)cc(O)c3c(=O)c2O)cc1` [Icaritin] the Platelet count (high dose 10 mg/kg sc (injection of Example 11)) was 819.96 ± 61.8**^ΔΔ ×10^9, the Platelet count (low dose 1 mg/kg sc (injection of Example 11)) was 680.84 ± 50.5 ×10^9 and the Platelet count (medium dose 5 mg/kg sc (injection of Example 11)) was 720.4 ± 60.3**^Δ ×10^9.

From patent US10799521B2, “Use of icaritin in preparing medicament for preventing or treating hematocytopenia” (Lunan Pharmaceutical Group Corporation, priority 2013, dated 2020)
